Laboratory results published in ChEMBL document CHEMBL6092134, “N-acyl-4-arylaminopiperidines: Design and synthesis of a potential antimicrobial scaffold” (Bioorg Med Chem Lett, 2024).

What was measured:
[1] = system: Pseudomonas aeruginosa; experiment: Antibacterial activity against Pseudomonas aeruginosa assessed as inhibition of bacterial growth at 50 uM by microdilution assay relative to control; type: functional
[2] = system: Staphylococcus aureus; experiment: Antibacterial activity against methicillin-resistant Staphylococcus aureus assessed as inhibition of bacterial growth at 50 uM by microdilution assay relative to control; type: functional
[3] = system: Klebsiella pneumoniae; experiment: Antibacterial activity against Klebsiella pneumoniae assessed as inhibition of bacterial growth at 50 uM by microdilution assay relative to control; type: functional
[4] = system: Staphylococcus aureus; experiment: Antibacterial activity against methicillin-resistant Staphylococcus aureus assessed as inhibition of bacterial growth by microdilution assay; type: functional, organism-based

Structure (SMILES) | inhibition at 50 µM [1] | inhibition at 50 µM [2] | inhibition at 50 µM [3] | IC50 [4]
COc1cc(/C=C/C(=O)N2CCC(Nc3ccc4c(c3)OCCO4)CC2)ccc1O | 0% | 3% | 23% | 
COc1ccc(NC2CCN(C(=O)/C=C/c3ccc(O)c(OC)c3)CC2)cc1 | 0% | 4% | 0% | 
O=C(/C=C/c1ccccc1)N1CCC(Nc2ccccc2)CC1 | 0% | 36% | 0% | 
COc1cc(/C=C/C(=O)N2CCC(Nc3ccc(C(C)C)cc3)CC2)ccc1O | 25% | 0% | 20% | 
O=C(/C=C/c1ccc2c(c1)OCCCO2)N1CCC(Nc2ccc(Cl)cc2)CC1 | 5% | 0% | 27% | 
COc1cc(/C=C/C(=O)N2CCC(Nc3cccc(F)c3)CC2)ccc1O | 4% | 0% | 29% | 
COc1cc(/C=C/C(=O)N2CCC(NCc3ccccc3)CC2)ccc1O | 0% | 0% | 41% | 
COc1cc(/C=C/C(=O)N2CCC(Nc3ccc(C)cc3)CC2)ccc1O | 6% | 0% | 49% | 
CC(C)c1ccc(NC2CCN(C(=O)/C=C/c3ccc4c(c3)OCCO4)CC2)cc1 | 10% | 26% | 29% | 
COc1ccc(NC2CCN(C(=O)/C=C/c3ccc4c(c3)OCCCO4)CC2)cc1 | 0% | 0% | 30% | 50.1 µM
O=C(/C=C/c1ccc2c(c1)OCCO2)N1CCC(Nc2ccccc2)CC1 | 14% | 0% | 35% | 
COc1cc(/C=C/C(=O)N2CCC(Nc3cccc4ccccc34)CC2)ccc1O | 0% | 0% | 0% | 
COc1ccc(NC2CCN(C(=O)/C=C/c3ccccc3)CC2)cc1 | 7% | 15% | 21% | 
COc1cc(/C=C/C(=O)N2CCC(Nc3ccc(F)cc3)CC2)ccc1O | 0% | 0% | 0% | 
O=C(/C=C/c1ccc2c(c1)OCO2)N1CCC(Nc2ccc(Cl)cc2)CC1 | 13% | 20% | 32% | 
CC(C)c1ccc(NC2CCN(C(=O)/C=C/c3ccc4c(c3)OCO4)CC2)cc1 | 27% | 0% | 28% | 
CC(C)c1ccc(NC2CCN(C(=O)/C=C/c3ccc4c(c3)OCCCO4)CC2)cc1 | 14% | 0% | 54% | 
COc1cc(/C=C/C(=O)N2CCC(Nc3cccc(Cl)c3)CC2)ccc1O | 14% | 0% | 0% | 
O=C(/C=C/c1ccc2c(c1)OCCCO2)N1CCC(Nc2ccccc2)CC1 | 6% | 0% | 40% | 
COc1cc(/C=C/C(=O)N2CCC(Nc3ccc(Cl)cc3)CC2)ccc1O | 18% | 0% | 37% | 
O=C(/C=C/c1ccc2c(c1)OCO2)N1CCC(Nc2ccccc2)CC1 | 0% | 0% | 24% | 
COc1ccc(NC2CCN(C(=O)/C=C/c3ccc4c(c3)OCCO4)CC2)cc1 | 7% | 30% | 40% | 
CC(C)c1ccc(NC2CCN(C(=O)/C=C/c3ccccc3)CC2)cc1 | 20% | 42% | 27% | 
O=C(/C=C/c1ccc2c(c1)OCCO2)N1CCC(Nc2ccc(Cl)cc2)CC1 | 10% | 24% | 19% | 60.5 µM
COc1cc(/C=C/C(=O)N2CCC(Nc3ccc(OC(F)(F)F)cc3)CC2)ccc1O | 16% | 0% | 0% | 
O=C(/C=C/c1ccccc1)N1CCC(Nc2ccc(Cl)cc2)CC1 | 37% | 22% | 38% | 
COc1ccc(NC2CCN(C(=O)/C=C/c3ccc4c(c3)OCO4)CC2)cc1 | 0% | 0% | 44% | 
COc1cc(/C=C/C(=O)N2CCC(Nc3ccccc3)CC2)ccc1O | 20% | 8% | 37% | 
